The values that follow come from ChEMBL document CHEMBL1201862, “PubChem BioAssay data set” (2004).

Activity calls are given as the source filed them. Bounds are passed on as bounds.

The term IC50 denotes the concentration needed to halve the response being measured. Broadly, the EC50 is the midpoint of the concentration-response curve.

In test [1] the target is DNA dC->dU-editing enzyme APOBEC-3A (Homo sapiens, UniProt P31941). Description: A3A deaminase inhibition for selectivity – biochemical, dose response (AID 504722). The format is functional.
Chain of DNA dC->dU-editing enzyme APOBEC-3A (P31941 whole entry): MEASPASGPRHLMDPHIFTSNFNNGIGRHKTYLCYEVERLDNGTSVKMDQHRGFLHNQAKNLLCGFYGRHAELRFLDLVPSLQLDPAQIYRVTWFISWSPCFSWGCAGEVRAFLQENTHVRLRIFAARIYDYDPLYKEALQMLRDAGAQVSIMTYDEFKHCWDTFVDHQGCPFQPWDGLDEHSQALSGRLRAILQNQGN
Test [2] deals with DNA dC->dU-editing enzyme APOBEC-3G (Homo sapiens, UniProt Q9HC16). Put plainly: Dose Response confirmation of small molecule APOBEC3G DNA Deaminase Inhibitors via a fluorescence-based single-stranded DNA deaminase assay. [Related pubchem assays (depositor defined):AID493012, AID493028]. The format is functional.
Chain of DNA dC->dU-editing enzyme APOBEC-3G (Q9HC16 whole entry): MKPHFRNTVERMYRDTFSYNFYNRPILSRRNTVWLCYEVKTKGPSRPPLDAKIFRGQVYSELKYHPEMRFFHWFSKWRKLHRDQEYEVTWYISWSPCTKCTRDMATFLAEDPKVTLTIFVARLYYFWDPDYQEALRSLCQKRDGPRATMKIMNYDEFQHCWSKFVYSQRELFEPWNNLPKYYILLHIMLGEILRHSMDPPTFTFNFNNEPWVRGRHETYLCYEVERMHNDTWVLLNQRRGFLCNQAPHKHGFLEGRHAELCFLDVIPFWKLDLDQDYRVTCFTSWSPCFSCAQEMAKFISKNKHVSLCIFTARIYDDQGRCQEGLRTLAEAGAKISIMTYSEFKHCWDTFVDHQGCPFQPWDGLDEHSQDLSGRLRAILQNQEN
For test [3], the target named is T1, Dual specificity protein phosphatase 6 (Rattus norvegicus, UniProt Q64346).
T1 sequence (Q64346 whole entry): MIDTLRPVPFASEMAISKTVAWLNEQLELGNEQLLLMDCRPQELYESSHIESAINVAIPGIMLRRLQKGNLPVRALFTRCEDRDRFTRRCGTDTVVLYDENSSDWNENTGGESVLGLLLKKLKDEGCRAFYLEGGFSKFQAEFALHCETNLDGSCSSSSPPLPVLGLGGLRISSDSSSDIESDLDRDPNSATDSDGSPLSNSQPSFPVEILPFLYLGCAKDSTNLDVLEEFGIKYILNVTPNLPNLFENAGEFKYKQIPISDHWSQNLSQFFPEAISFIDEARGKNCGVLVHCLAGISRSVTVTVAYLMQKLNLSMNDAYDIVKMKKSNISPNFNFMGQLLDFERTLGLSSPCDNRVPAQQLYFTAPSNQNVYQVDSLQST

For test [4], the target named is T1, Dual specificity protein phosphatase 6. The format is functional.
Test [5] concerns the target Glyceraldehyde-3-phosphate dehydrogenase (Homo sapiens, UniProt P04406).
Test [6] concerns the target T2, Tyrosine-protein phosphatase non-receptor type 7 (Homo sapiens, UniProt P35236).
T2 sequence (P35236 whole entry): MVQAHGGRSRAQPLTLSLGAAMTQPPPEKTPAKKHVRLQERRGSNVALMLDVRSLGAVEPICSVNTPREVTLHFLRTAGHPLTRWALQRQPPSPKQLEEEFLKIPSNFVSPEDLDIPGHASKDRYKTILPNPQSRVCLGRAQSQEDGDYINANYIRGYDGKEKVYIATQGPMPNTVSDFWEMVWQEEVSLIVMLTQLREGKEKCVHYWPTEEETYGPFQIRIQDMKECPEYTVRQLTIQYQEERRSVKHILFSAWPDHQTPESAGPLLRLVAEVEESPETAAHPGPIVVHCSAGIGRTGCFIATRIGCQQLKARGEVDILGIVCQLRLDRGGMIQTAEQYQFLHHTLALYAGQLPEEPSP
The format is functional.

The target of test [7] is Melanin-concentrating hormone receptor 1 (Homo sapiens, UniProt Q99705). Description: Fluorescence-based counterscreen for antagonists of the G-protein coupled receptor 7 (GPR7): cell-based high throughput dose response assay to identify antagonists of the melanin-concentrating hormone receptor 1 (MCHR1). The format is functional. A general note: The purpose of a counterscreen is to sort out artefacts and off-target activity.
Chain of Melanin-concentrating hormone receptor 1 (Q99705 whole entry): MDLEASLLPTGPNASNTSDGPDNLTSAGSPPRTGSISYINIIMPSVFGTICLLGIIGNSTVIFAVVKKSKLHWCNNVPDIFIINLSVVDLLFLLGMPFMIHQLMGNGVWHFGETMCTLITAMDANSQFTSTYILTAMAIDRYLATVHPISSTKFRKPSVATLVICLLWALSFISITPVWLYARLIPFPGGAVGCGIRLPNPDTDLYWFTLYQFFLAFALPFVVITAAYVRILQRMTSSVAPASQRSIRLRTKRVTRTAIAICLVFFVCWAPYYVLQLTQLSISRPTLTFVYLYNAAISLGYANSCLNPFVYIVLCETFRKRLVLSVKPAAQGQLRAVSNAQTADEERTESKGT

Test [8] has as its target T3, Alkaline phosphatase, tissue-nonspecific isozyme (Homo sapiens, UniProt P05186).
T3 sequence (P05186 whole entry): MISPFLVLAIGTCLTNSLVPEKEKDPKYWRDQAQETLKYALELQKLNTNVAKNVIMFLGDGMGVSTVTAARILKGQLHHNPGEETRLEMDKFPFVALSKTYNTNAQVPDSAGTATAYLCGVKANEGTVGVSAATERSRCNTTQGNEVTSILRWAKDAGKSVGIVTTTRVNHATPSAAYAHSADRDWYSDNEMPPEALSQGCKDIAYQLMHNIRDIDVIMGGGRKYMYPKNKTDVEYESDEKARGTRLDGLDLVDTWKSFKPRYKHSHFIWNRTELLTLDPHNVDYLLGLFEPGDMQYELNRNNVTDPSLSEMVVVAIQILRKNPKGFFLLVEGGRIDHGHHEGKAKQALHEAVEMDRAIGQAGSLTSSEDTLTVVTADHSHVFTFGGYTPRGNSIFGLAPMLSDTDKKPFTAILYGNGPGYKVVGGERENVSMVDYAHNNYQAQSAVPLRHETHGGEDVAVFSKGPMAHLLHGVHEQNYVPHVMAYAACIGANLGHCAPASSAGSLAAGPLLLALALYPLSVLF
Put plainly: potency against alkaline phosphatase TNAP – biochemical, luminescent, dose response, SAR follow-up (AID 1056).

The next test addresses T4, Coagulation factor XII (Homo sapiens, UniProt P00748).
T4 sequence (P00748 whole entry): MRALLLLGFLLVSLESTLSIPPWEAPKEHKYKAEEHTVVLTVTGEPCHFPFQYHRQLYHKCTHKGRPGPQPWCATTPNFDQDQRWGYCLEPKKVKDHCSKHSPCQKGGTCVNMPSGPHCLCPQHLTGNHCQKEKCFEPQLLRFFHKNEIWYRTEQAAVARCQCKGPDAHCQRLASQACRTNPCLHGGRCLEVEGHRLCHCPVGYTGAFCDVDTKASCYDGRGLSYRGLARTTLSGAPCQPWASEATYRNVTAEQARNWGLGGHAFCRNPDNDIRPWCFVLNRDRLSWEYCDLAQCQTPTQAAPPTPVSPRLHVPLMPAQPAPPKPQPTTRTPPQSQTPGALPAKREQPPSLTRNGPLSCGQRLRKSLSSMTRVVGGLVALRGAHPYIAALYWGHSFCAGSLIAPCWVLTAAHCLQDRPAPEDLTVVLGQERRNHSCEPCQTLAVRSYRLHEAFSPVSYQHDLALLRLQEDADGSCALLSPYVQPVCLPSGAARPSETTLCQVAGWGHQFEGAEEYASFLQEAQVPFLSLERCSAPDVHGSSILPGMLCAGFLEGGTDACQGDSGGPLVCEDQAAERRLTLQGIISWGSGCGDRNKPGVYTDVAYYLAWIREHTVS
The format is functional.

In test [9] the target is T5, Rac GTPase-activating protein 1 (Homo sapiens, UniProt Q9H0H5).
T5 sequence (Q9H0H5 whole entry): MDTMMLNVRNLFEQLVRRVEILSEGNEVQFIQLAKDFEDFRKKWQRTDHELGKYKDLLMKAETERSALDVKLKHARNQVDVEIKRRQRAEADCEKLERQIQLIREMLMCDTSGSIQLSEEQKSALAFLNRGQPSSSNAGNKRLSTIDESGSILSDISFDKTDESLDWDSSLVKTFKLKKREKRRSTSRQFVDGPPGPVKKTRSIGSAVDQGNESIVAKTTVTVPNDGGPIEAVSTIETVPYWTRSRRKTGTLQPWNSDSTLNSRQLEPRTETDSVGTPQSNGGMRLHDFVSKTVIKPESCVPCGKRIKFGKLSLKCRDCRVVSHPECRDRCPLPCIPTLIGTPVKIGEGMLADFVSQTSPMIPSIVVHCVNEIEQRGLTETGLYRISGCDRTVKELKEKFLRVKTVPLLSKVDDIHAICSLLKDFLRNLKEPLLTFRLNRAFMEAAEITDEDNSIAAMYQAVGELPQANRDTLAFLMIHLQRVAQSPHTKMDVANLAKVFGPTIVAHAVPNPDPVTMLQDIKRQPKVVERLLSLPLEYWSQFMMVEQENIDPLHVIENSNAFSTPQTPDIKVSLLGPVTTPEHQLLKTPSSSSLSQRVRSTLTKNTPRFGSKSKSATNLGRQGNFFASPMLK
Put plainly: blockers of MgcRacGAP-driven Rac1 GTP hydrolysis – biochemical, ADP Hunter fluorescence, primary and confirmatory, confirmation (AID 624330). The format is functional.

Test [10] is described as follows: alpha-synuclein stem-loop luciferase translation blockers – H4 neuroglioma cells, luminescence, confirmation (AID 1988). The format is functional, cell-based.
Test [11] can be described thus: Luminescence Cell-Based Dose Response HTS to Identify Inhibitors of 5'UTR Stem-Loop Driven Prion Protein mRNA Translation in H4 Neuroglioblastoma Cells. [Related pubchem assays: 1827 (Project Summary), 1813 (Primary HTS)]. The format is functional.
In test [12] the target is Voltage-dependent T-type calcium channel subunit alpha-1H (Homo sapiens, UniProt O95180). The format is functional.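 Further: channel activity triggered by adding a high calcium stimulation buffer.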
Chain of Voltage-dependent T-type calcium channel subunit alpha-1H (O95180 whole entry): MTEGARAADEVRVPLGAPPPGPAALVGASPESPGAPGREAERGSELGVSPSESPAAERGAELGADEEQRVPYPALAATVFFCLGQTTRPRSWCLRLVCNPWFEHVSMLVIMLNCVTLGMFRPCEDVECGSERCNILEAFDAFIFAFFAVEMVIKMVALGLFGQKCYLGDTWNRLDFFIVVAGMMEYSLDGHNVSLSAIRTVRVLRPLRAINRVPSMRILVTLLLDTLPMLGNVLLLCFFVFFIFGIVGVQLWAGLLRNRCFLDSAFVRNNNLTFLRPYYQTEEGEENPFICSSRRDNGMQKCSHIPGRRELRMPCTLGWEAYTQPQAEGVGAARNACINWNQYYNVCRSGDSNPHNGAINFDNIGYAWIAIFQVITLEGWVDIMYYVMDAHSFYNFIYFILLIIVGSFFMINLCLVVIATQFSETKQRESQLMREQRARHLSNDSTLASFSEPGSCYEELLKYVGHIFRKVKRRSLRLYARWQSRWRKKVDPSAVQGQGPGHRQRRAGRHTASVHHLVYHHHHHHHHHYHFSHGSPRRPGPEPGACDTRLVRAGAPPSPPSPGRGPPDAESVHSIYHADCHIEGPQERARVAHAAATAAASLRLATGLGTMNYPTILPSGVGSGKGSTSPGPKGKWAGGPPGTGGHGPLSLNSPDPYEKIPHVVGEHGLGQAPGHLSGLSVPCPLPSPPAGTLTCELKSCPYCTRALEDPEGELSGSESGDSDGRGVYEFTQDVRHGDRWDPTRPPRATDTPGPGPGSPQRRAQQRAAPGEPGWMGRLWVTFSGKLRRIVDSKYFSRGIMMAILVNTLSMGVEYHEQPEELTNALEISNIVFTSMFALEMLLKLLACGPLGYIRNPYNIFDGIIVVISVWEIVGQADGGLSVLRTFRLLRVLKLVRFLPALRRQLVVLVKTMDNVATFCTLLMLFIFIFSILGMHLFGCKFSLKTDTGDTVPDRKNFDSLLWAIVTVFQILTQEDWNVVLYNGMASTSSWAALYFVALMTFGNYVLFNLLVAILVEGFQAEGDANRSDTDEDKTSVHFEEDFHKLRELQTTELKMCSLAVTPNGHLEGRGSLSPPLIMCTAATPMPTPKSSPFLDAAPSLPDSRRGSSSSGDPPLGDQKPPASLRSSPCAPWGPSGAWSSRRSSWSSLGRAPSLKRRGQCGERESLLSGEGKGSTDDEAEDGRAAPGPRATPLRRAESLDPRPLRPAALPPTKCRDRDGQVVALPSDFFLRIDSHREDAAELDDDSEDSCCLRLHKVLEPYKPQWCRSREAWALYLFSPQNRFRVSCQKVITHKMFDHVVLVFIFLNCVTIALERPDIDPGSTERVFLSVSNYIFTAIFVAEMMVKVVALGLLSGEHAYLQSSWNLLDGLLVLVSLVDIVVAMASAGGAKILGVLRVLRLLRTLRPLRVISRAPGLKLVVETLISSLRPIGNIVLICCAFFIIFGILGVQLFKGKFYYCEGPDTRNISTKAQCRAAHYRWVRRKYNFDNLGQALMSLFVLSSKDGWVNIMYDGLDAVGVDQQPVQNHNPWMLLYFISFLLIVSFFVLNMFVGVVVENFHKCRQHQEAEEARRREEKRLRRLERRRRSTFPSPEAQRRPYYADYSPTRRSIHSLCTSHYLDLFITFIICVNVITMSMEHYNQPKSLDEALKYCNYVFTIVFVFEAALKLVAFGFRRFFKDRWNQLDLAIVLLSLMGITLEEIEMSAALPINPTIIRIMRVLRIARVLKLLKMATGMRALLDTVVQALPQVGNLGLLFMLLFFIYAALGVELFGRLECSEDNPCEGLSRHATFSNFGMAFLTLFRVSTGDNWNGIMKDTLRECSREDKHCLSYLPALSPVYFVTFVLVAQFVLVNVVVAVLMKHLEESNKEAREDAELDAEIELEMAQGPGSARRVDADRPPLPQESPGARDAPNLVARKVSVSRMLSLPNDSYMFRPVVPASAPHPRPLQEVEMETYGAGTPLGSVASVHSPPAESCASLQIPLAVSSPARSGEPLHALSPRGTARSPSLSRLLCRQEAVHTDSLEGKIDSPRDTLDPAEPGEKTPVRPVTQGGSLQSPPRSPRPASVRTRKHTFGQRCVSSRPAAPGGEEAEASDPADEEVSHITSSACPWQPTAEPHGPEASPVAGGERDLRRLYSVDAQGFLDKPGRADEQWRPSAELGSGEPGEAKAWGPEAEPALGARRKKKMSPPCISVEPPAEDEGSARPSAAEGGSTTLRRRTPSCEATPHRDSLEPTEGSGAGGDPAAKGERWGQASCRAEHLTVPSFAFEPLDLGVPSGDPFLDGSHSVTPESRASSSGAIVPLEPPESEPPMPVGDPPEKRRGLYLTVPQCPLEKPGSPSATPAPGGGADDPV
A short description of test [13]: luciferase reporter signal suppression in cells – H4 neuroglioma cells, luminescence, dose response (AID 1990). The format is functional, cell-based. On the technique in general: A reporter such as luciferase makes a cellular process visible.
For another test, the target named is Large T antigen (Simian virus 40, UniProt P03070). The format is functional, Betapolyomavirus macacae.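 Further: Confirmatory-stage PubChem screen for compounds that inhibit SV40 T antigen.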
Chain of Large T antigen (P03070 whole entry): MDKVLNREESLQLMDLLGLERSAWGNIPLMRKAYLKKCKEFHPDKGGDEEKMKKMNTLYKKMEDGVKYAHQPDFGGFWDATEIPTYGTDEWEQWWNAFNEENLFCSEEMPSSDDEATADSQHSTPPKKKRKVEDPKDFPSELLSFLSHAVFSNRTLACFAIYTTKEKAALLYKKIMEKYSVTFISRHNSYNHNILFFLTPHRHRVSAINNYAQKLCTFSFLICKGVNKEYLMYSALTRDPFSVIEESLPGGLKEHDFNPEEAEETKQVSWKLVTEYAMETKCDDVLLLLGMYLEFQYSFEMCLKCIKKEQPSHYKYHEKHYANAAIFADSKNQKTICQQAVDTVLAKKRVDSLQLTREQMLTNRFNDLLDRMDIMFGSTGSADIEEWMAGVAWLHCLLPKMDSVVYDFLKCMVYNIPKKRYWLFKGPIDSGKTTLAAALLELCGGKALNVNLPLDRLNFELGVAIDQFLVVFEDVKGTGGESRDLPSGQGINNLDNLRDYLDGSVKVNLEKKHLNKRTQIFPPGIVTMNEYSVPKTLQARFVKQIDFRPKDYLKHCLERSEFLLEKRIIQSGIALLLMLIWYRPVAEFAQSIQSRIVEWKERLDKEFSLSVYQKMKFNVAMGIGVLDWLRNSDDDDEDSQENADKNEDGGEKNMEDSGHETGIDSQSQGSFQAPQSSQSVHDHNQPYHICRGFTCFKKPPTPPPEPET
Test [14] concerns the target T6, Ubiquitin-conjugating enzyme E2 N (Homo sapiens, UniProt P61088).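 Further: Dose-response confirmation in a TR-FRET assay detecting UBC13-driven polyubiquitin chain formation, inhibition measured.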
T6 sequence (P61088 whole entry): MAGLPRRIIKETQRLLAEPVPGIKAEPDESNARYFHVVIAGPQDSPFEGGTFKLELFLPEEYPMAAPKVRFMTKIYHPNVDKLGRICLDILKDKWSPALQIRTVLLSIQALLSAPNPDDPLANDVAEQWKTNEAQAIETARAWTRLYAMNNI
The format is functional.

Test [15] is described as follows: NIH3T3 cell viability loss – ATP luminescence, mouse fibroblasts, counter-screen, dose response (AID 2010).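 Further: cells exposed to compound for about 90 hours before reading.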 The format is functional, cell-based.
Test [16] is described as follows: Trypanosoma cruzi growth suppression in host cells – NIH3T3 host cells, beta-gal luminescence, confirmation (AID 2044).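 Further: intracellular parasites grown in NIH/3T3 mouse fibroblasts as host cells; luminescent beta-galactosidase reporter signal from transgenic T. cruzi replicating inside host cells; inhibitors lower the luminescence signal.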 The format is functional, cell-based.
For a further test, the target named is T7, Aminopeptidase N (Plasmodium falciparum FcB1/Columbia, UniProt O96935).
T7 sequence (O96935 whole entry): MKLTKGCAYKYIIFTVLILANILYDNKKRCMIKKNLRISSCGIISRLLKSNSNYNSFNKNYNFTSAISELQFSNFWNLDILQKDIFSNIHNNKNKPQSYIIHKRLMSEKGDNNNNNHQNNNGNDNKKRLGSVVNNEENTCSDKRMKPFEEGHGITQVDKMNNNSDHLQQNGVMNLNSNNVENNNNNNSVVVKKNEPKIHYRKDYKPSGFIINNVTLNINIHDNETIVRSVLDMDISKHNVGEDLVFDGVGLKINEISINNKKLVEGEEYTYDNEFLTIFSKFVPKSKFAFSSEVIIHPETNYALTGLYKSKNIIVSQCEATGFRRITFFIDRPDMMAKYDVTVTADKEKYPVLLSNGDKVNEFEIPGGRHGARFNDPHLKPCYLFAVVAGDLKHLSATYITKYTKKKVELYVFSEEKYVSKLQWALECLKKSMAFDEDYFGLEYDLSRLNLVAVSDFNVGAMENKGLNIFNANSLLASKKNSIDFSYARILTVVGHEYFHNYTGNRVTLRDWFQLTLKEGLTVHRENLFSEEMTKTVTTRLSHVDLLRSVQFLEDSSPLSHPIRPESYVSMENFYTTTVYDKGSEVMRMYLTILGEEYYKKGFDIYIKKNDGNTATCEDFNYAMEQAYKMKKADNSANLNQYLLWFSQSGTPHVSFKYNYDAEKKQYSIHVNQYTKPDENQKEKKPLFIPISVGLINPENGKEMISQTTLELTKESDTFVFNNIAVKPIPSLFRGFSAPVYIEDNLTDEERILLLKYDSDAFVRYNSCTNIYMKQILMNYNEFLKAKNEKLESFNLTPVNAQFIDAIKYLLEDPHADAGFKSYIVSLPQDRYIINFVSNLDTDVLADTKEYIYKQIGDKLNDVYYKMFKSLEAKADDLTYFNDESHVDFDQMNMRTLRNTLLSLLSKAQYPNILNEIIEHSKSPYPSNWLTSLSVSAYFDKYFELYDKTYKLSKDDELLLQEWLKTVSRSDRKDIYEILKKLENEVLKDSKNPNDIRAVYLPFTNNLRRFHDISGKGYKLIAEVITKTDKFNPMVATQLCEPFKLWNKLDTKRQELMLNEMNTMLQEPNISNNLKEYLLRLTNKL
Description: malaria alanyl aminopeptidase activity blockers – biochemical, fluorogenic H-Leu-NHMec substrate, 1536-well (AID 1445). Also noted: species or system Plasmodium falciparum 3D7, 3D7.

Chain of Glyceraldehyde-3-phosphate dehydrogenase (P04406 whole entry): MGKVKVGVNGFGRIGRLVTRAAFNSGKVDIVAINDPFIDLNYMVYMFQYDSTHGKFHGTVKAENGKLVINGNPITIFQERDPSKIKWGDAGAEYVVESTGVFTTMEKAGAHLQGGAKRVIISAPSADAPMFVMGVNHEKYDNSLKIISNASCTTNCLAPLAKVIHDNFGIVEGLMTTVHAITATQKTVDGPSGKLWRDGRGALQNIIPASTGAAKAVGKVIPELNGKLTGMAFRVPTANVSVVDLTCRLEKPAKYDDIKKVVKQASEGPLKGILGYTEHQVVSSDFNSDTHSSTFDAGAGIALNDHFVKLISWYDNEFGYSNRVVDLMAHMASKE

Turning to `C=CCn1c(S)nnc1-c1cccc(S(=O)(=O)N(CC)CC)c1`, the IC50 in test [1] is > 100 µM (inactive); in test [2], 5.67 µM (active).

As to `O=C(O)C1Nc2c(cccc2N2CCOCC2)C2C=CCC12` (configuration not stated), the IC50 is 44 µM (active) in [3], 60.1 µM (active) in test [4], > 100 µM (not active) in test [5] and 3.87 µM (active) in test [6].

On to `O=C(c1ccco1)N1CCN(S(=O)(=O)c2ccc(S(=O)(=O)NC3CCCCC3)cc2)CC1`, for which, in test [7], the IC50 is listed as 23.8 µM (not active).

Take `COc1ccc(C(C)(C)C)cc1S(=O)(=O)Nc1cccnc1`: in test [8], the IC50 was 26.4 µM (active).

For the molecule `CSc1ccccc1C(=O)C1CCCN(S(=O)(=O)N(C)C)C1` (configuration not stated), the IC50 at Coagulation factor XII was > 50 µM (inactive).

Consider `CCOc1ccc(S(=O)(=O)Nc2cnc3ccccc3c2)cc1`, for which the figures for the IC50 in test [8] and in [5] were > 100 µM (inactive) and > 100 µM (not active), respectively.

In the case of `COc1ccc(/C=N/n2c(S)nnc2-c2[nH]nc3c2CCC3)cc1OC`, the IC50 is > 100 µM (inactive) in [1], 79.9 µM (active) in [9] and 2.49 µM (active) in test [2].

Consider `Cc1nc2cc(-c3ccccc3)nn2c(C)c1CCC(=O)N1CCN(c2ccccc2)CC1`, for which the EC50 in test [10] is 16.1 µM (active); in test [11], 13.6 µM (active); in test [12], 4.59 µM (active); in test [13], 16.6 µM (active).

`CCOc1ccccc1NC(=O)C1CCCN(S(=O)(=O)c2ccc(OC)c(C)c2)C1` (configuration not stated): the EC50 in test [12] is 13.6 µM (active).

Take `COc1ccc(C2CC(=O)C(C(c3ccc(O)cc3)C3C(=O)CC(c4ccc(OC)cc4)CC3=O)C(=O)C2)cc1` (configuration not stated): the IC50 at Large T antigen was 37.3 µM (active); at Coagulation factor XII, > 50 µM (inactive).

In the case of `Cc1ccccc1NC(NC(=O)c1cccs1)C(Cl)(Cl)Cl` (configuration not stated), the EC50 in test [12] is 5.15 µM (active).

As for `C/C(Cl)=C\Cn1c(O)c(/N=N/C(=N)S)c2ccccc21`, the IC50 was > 20 µM (inactive) in [14] and 63.5 µM (active) at Aminopeptidase N. The EC50 in test [15] is > 30 µM (not active); in [16] it was 1.2 µM (active).

In the case of `O=C(CCCN1C(=O)c2cccc3cccc(c23)C1=O)NCc1cccnc1`, the IC50 at Coagulation factor XII is > 50 µM (inactive).
